How the values were obtained:
[1] = tested on: A549 (P450R+ve); test: Cell proliferation (sulphorhodamine B) IC50, P450R-transfected A549 human lung cells, anoxia vs 20% O2; assay type: cell-based; settings: for A549 (P450R+ve) 20% O2/anoxia IC50 Ratio: 4 h, sensitivity ratio for hypoxia
[2] = tested on: WiDr (NTR+ve); test: Cell proliferation (sulphorhodamine B) IC50, NTR-transfected WiDr human colon cells; assay type: cell-based; settings: for WiDr WT:NTR IC50 Ratio: 4 h, sensitivity ratio for NTR expression; for IC50: 4 h drug exposure, growth 5 further days
[3] = in vivo; settings: CD-1 nude, mouse, ip
[4] = tested on: SiHa human tumour xenografts; test: SiHa xenograft excision / clonogenic assay, with or without 15 Gy radiation; assay type: in vivo; settings: for Log kill, cmpd after radiation: single i.p. dose 5 min after 15 Gy, relative to radiation only
[5] = A549, 4 h drug exposure under 0% oxygen
[6] = 4 h drug exposure under 0% oxygen
[7] = 75% of MTD, single i.p. dose, no radiation, relative to vehicle controls, excision 18 h

Row | Molecule | A549 (P450R+ve) 20% O2/anoxia IC50 Ratio [1] | IC50 [1, 5] | WiDr WT:NTR IC50 Ratio [2] | IC50 ([2]; WiDr) | further results
1 | O=C(NCCCO)c1c([N+](=O)[O-])ccc(N(CCBr)CCBr)c1[N+](=O)[O-] [IIc-8, 3-[Bis(2-Bromoethyl)Amino]-N-(3-Hydroxypropyl)-2,6-Dinitrobenzamide] | 24 | 6.6 µM | 70 | 5 µM | 
2 | 2-((2-Bromoethyl)-2-{[(2-Hydroxypropyl)Amino]Carbonyl}-4,6-Dinitroanilino)Ethyl Methanesulfonate [IIb-13] | 138 |  | 27 |  | IC50 [1, 6]: 0.15 µM; IC50 [2]: 0.3 µM
3 | O=C(NCCOP(=O)(O)O)c1cc([N+](=O)[O-])cc([N+](=O)[O-])c1N(CCCl)CCCl [Ib-2P, 2-[[2-[Bis(2-Chloroethyl)Amino]-3,5-Dinitrobenzoyl]Amino]Ethyl Dihydrogen Phosphate] |  |  |  |  | MTD [3]: 237 µmol/kg
4 | 2-((2-Bromoethyl)-3-{[(4-Hydroxybutyl)Amino]Carbonyl}-2,4-Dinitroanilino)Ethyl Methanesulfonate [IIc-14] | 57 |  | 16 |  | IC50 [1, 6]: 7.1 µM; IC50 [2]: 20 µM
5 | O=C(NCCCCCCO)c1cc([N+](=O)[O-])cc([N+](=O)[O-])c1N(CCBr)CCBr [IIb-11, 2-[Bis(2-Bromoethyl)Amino]-N-(6-Hydroxyhexyl)-3,5-Dinitrobenzamide] | 4.5 | 6.6 µM | 2 | 1 µM | 
6 | 2-[(2-Bromoethyl)-2,4-Dinitro-6-[[[2-(Phosphonooxy)Ethyl]Amino]-Carbonyl]Anilino]Ethyl Methanesulfonate [Ib-12P] |  |  |  |  | Log kill, cmpd after radiation ([4]; 20% of MTD): 1.65 ± 0.19; Log kill, cmpd after radiation ([4]; 75% of MTD): ≧3.38 ± 0.28; Log kill, cmpd only, Mean ± sem [4, 7]: 1.32 ± 0.30
7 | Nc1n[n+]([O-])c2ccccc2[n+]1[O-] [Tirapazamine, reference compound] |  |  |  |  | Activity against hypoxic cells ([4]; 20% of respective MTDs, after radiation): lacked activity; Log kill, cmpd only, Mean ± sem ([4]; in vivo, ip): −0.02 ± 0.01; MTD [3]: 316 µmol/kg
8 | O=C(NCCCCCCO)c1cc(N(CCBr)CCBr)c([N+](=O)[O-])cc1[N+](=O)[O-] [IIa-11, N-(6-Hydroxyhexyl)-5-[Bis(2-Bromoethyl)Amino]-2,4-Dinitrobenzamide] |  |  | 9 | 11 µM | 
9 | O=C(NCCCCCO)c1cc(N(CCBr)CCBr)c([N+](=O)[O-])cc1[N+](=O)[O-] [IIa-10, N-(5-Hydroxypentyl)-5-[Bis(2-Bromoethyl)Amino]-2,4-Dinitrobenzamide] |  |  | 22 | 10 µM | 
10 | O=C(NCCCCO)c1c([N+](=O)[O-])ccc(N(CCBr)CCBr)c1[N+](=O)[O-] [IIc-9, 3-[Bis(2-Bromoethyl)Amino]-N-(4-Hydroxybutyl)-2,6-Dinitrobenzamide] | 21 | 7.3 µM | 6 | 31 µM | 
11 | O=C(NCCO)c1c([N+](=O)[O-])ccc(N(CCBr)CCBr)c1[N+](=O)[O-] [IIc-7, 3-[Bis(2-Bromoethyl)Amino]-N-(2-Hydroxyethyl)-2,6-Dinitrobenzamide] | 40 | 3.9 µM | 46 | 10 µM | 
12 | O=C(NCCCO)c1cc(N(CCBr)CCBr)c([N+](=O)[O-])cc1[N+](=O)[O-] [IIa-8, N-(3-Hydroxypropyl)-5-[Bis(2-Bromoethyl)Amino]-2,4-Dinitrobenzamide] | 6.6 | 23 µM | 224 | 1.6 µM | 
13 | O=C(NCCCOP(=O)(O)O)c1c([N+](=O)[O-])ccc(N(CCBr)CCBr)c1[N+](=O)[O-] [Ic-8P, 3-({3-[Bis(2-Bromoethyl)Amino]-2,6-Dinitrobenzoyl}Amino)Propyl Dihydrogen Phosphate] |  |  |  |  | MTD [3]: 562 µmol/kg
14 | 2-((2-Bromoethyl)-2-{[(2-Hydroxyethyl)Amino]Carbonyl}-4,6-Dinitroanilino)Ethyl Methanesulfonate [IIb-12] | 133 |  | 48 |  | IC50 [1, 6]: 0.28 µM; IC50 [2]: 0.4 µM
15 | O=C(NCCCCO)c1cc([N+](=O)[O-])cc([N+](=O)[O-])c1N(CCCl)CCCl [IIb-4, 2-[Bis(2-Chloroethyl)Amino]-N-(4-Hydroxybutyl)-3,5-Dinitrobenzamide] |  |  | 18 | 14 µM | 
16 | O=C(NCCCOP(=O)(O)O)c1cc(N(CCBr)CCBr)c([N+](=O)[O-])cc1[N+](=O)[O-] [Ia-8P, 3-[[5-[Bis(2-Bromoethyl)Amino]-2,4-Dinitrobenzoyl]Amino]Propyl Dihydrogen Phosphate] |  |  |  |  | MTD [3]: 1000 µmol/kg
17 | 2-((2-Iodoethyl)-2-{[(2-Hydroxyethyl)Amino]Carbonyl}-4,6-Dinitroanilino)Ethyl Methanesulfonate [IIb-15] | 118 |  | 31 |  | IC50 [1, 6]: 0.28 µM; IC50 [2]: 0.3 µM

Row | Molecule | A549 (P450R+ve) 20% O2/anoxia IC50 Ratio [1] | IC50 [1, 5] | WiDr WT:NTR IC50 Ratio [2] | IC50 ([2]; WiDr) | further results
18 | 2-[(2-Bromoethyl)-2,4-Dinitro-3-[[[2-(Phosphonooxy)Ethyl]Amino]-Carbonyl]Anilino]Ethyl Methanesulfonate [Ic-12P] |  |  |  |  | Log kill, cmpd after radiation ([4]; 20% of MTD): 2.03 ± 0.25; Log kill, cmpd after radiation ([4]; 75% of MTD): ≧2.96 ± 0.31; Log kill, cmpd only, Mean ± sem [4, 7]: 1.04 ± 0.29
19 | 2-[Bis(2-Chloroethyl)Amino]-N-(6-Hydroxybexyl)-3,5-Dinitrobenzamide [IIb-6] |  |  | 5 |  | IC50 [2]: 27 µM
20 | 2-[(2-Chloroethyl)-2,4-Dinitro-6-[[[2-(Phosphonooxy)Ethyl]amino]-Carbonyl]Anilino]Ethyl Methanesulfonate [Ib-2mP] |  |  |  |  | Log kill, cmpd after radiation ([4]; 20% of MTD): 2.56 ± 0.37; Log kill, cmpd after radiation ([4]; 75% of MTD): ≧3.47 ± 0.17; Log kill, cmpd only, Mean ± sem [4, 7]: 2.47 ± 0.08
21 | 2-[(2-Iodoethyl)-2,4-Dinitro-6-({[2-(Phosphonooxy)Ethyl]Amino}Carbonyl)-Anilino]Ethyl Methanesulfonate [Ib-15P] |  |  |  |  | Log kill, cmpd after radiation ([4]; 20% of MTD): 1.74 ± 0.23; Log kill, cmpd after radiation ([4]; 75% of MTD): ≧3.27 ± 0.13; Log kill, cmpd only, Mean ± sem [4, 7]: 2.24 ± 0.15
22 | 2-((2-Bromoethyl)-3-{[(3-Hydroxypropyl)Amino]Carbonyl}-2,4-Dinitroanilino)Ethyl Methanesulfonate [IIc-13] | 134 |  | 95 |  | IC50 [1, 6]: 4.5 µM; IC50 [2]: 4.3 µM
23 | 2 [(2-Bromoethyl)-5-[[(3-Hydroxypropyl)Amino]Carbonyl]-2,4-Dinitroanilino]Ethyl Methanesulfonate [IIa-13] | 18 |  | 90 |  | IC50 [1, 6]: 32 µM; IC50 [2]: 5 µM
24 | 2-[(2-Iodoethyl)-2,4-Dinitro-3-[[[3-(Phosphonooxy)Propyl]Amino]-Carbonyl]Anilino]Ethyl Methanesulfonate [Ic-15P] |  |  |  |  | Log kill, cmpd after radiation ([4]; 20% of MTD): 1.81 ± 0.23; Log kill, cmpd after radiation ([4]; 75% of MTD): 2.80 ± 0.40; Log kill, cmpd only, Mean ± sem [4, 7]: 2.27 ± 0.17
25 | 2-[(2-Bromoethyl)-2,4-Dinitro-3-[[[3-(Phosphonooxy)Propyl]Amino]-Carbonyl]Anilino]Ethyl Methanesulfonate [Ic-13P] |  |  |  |  | Log kill, cmpd after radiation ([4]; 20% of MTD): 1.60 ± 0.20; Log kill, cmpd after radiation ([4]; 75% of MTD): ≧3.23 ± 0.08; Log kill, cmpd only, Mean ± sem [4, 7]: 2.36 ± 0.28
26 | O=C(NCCCCCO)c1cc([N+](=O)[O-])cc([N+](=O)[O-])c1N(CCCl)CCCl [IIb-5, 2-[Bis(2-Chloroethyl)Amino]-N-(5-Hydroxypentyl)-3,5-Dinitrobenzamide] |  |  | 19 | 13 µM | 
27 | O=C(NCCCCCO)c1cc([N+](=O)[O-])cc([N+](=O)[O-])c1N(CCBr)CCBr [IIb-10, 2-[Bis(2-Bromoethyl)Amino]-N-(5-Hydroxypentyl)-3,5-Dinitrobenzamide] | 11 | 2.3 µM | 2 | 0.9 µM | 
28 | O=C(NCCCCO)c1cc([N+](=O)[O-])cc([N+](=O)[O-])c1N(CCBr)CCBr [IIb-9, 2-[Bis(2-Bromoethyl)Amino]-N-(4-Hydroxybutyl)-3,5-Dinitrobenzamide] | 20 | 1.4 µM | 5 | 0.9 µM | 
29 | O=C(NCCO)c1cc(N(CCI)CCI)c([N+](=O)[O-])cc1[N+](=O)[O-] [IIa-14, 5-[Bis(2-Iodoethyl)Amino]-N-(2-Hydroxyethyl)-2,4-Dinitrobenzamide] | 4.5 | 13 µM | 49 | 2.9 µM | 
30 | 2-[(2-Chloroethyl)-2,4-Dinitro-3-[[[3-(Phosphonooxy)Propyl]Amino]-Carbonyl]Anilino]Ethyl Methanesulfonate [Ic-6P] |  |  |  |  | Log kill, cmpd after radiation ([4]; 20% of MTD): 1.64 ± 0.30; Log kill, cmpd after radiation ([4]; 75% of MTD): ≧2.62 ± 0.17; Log kill, cmpd only, Mean ± sem [4, 7]: 1.11 ± 0.20
31 | O=C(NCCCO)c1cc(N(CCCl)CCCl)c([N+](=O)[O-])cc1[N+](=O)[O-] [IIa-3, N-(3-Hydroxypropyl)-5-[bis(2-Chloroethyl)Amino]-2,4-Dinitrobenzamide] | 23 | 54 µM | 36 | 47 µM | 
32 | O=C(NCCO)c1cc(N(CCBr)CCBr)c([N+](=O)[O-])cc1[N+](=O)[O-] [IIa-7, N-(2-Hydroxyethyl)-5-[Bis(2-Bromoethyl)Amino]-2,4-Dinitrobenzamide] | 49 | 6.7 µM | 99 | 1.5 µM | 
33 | 2-((2-Bromoethyl)-3-{[(2-Hydroxyethyl)Amino]carbonyl}-2,4-Dinitroanilino)Ethyl Methanesulfonate [IIc-12] | 173 |  | 84 |  | IC50 [1, 6]: 2.6 µM; IC50 [2]: 5 µM
